Assay results taken from BigSolDB 2.1.

CC1=C(O)C(=O)C(C)O1 (stereo not drawn)
solubility (mole fraction)
Settings	278.15 K	283.15 K	288.15 K	293.15 K	298.15 K	303.15 K	308.15 K	313.15 K
in 1,4-dioxane	0.192	0.22	0.248	0.282	0.315	0.357	0.4	0.445
in DMF	0.256	0.281	0.307	0.336	0.368	0.402	0.439	0.479
in acetone	0.127	0.151	0.177	0.209	0.244	0.284	0.329	0.381
in acetonitrile	0.0733	0.0896	0.11	0.134	0.164	0.202	0.248	0.303
in chloroform	0.256	0.281	0.307	0.336	0.368	0.402	0.439	0.479
in cyclohexanone	0.105	0.128	0.155	0.187	0.225	0.269	0.318	0.372
in dichloromethane	0.139	0.16	0.189	0.219	0.254	0.292	0.337	0.386
in isopropanol	0.181	0.211	0.24	0.272	0.309	0.348	0.387	0.435
in methyl acetate	0.139	0.16	0.189	0.219	0.254	0.292	0.337	0.386
in n-propyl acetate	0.139	0.16	0.189	0.219	0.254	0.292	0.337	0.386
in sec-butanol	0.105	0.128	0.155	0.187	0.225	0.269	0.318	0.372
